Assay results taken from article PMC12333940, “A prometabolite strategy inhibits cardiometabolic disease in an ApoE^–/– murine model of atherosclerosis” (JCI Insight, 2025).
“And” between values parts separate entries of the source, which are not always exact repeats. Identical values can stand only once.

Columns and labels:
[1] = tested on: ApoE^–/– mice on an HFD; assay: qPCR of liver lipid metabolism genes; format: in vivo, mouse; set-up: srebf1 / srebf2 / fasn / acly / scd1 / acaca / cpt1a: scale not given here; details: for acaca / acly / cpt1a / fasn / scd1 / srebf1 / srebf2: qPCR, individual mice
Protocol: We then asked whether SerBut’s effects on disease pathology and inflammation may be partially mediated by changes in lipid metabolism by measuring lipogenic and lipid oxidation gene expression by qPCR after treatment for 6 weeks (Supplemental Figure 10, F–L).
For 6 weeks, mice were freely administered water, water containing 150 mM SerBut, or water containing an equimolar amount of NaBut. SerBut water was pH adjusted using 10 M NaOH to a final pH of 7.4. […] In concert, mice were fed an HFD with 42% from fat and 0.2% total cholesterol (Envigo, TD-88137) ad libitum. After 6 weeks, mice were euthanized. The lMLNs, ILNs, spleen, heart, and aorta were harvested and processed for flow cytometry analysis ([67]). The liver was harvested and part was homogenized in tissue protein extraction reagent buffer (Invitrogen, 78510) supplemented with protease inhibitor mini tablets (Thermo Fisher Scientific, PIA32955) for Western blotting and qPCR. The remaining liver was fixed with 4% paraformaldehyde and embedded in paraffin for histological analysis.

[2] = tested on: NF-κB; assay: NF-κB-SEAP reporter assay in RAW-Blue cells after LPS; format: cell-based; details: for NFkB OD: then 200 ng/mL LPS 6 h
Protocol: NF-κB inhibition was assayed using the NF-κB-SEAP reporter cell line, RAW-Blue (InvivoGen, raw-sp). Cells were plated in round-bottom 96-well plates at 100,000 cells per well and cocultured with different concentrations of either NaBut or SerBut (0.15–12 mM) for 24 hours. After the addition of butyrate, cells were rinsed with phosphate buffered saline (PBS) and then stimulated with 200 ng/mL LPS in media for 6 hours.

[3] = Biodistribution of free butyrate after oral gavage, ApoE–/– mice on HFD
Protocol: Samples were prepared and derivatized as described previously ([28]). Stock solutions were prepared in water/acetonitrile (ACN) (1:1 v/v): 3-nitrophenylhydrazine (NPH), and 1-ethyl-3-(3-dimethylaminopropyl)carbodiimide (EDC) (in 1% pyridine). The internal standard, 4-methylvaleric acid, was added. Samples were mixed with NPH and EDC stocks at a 1:1:1 volume ratio. The mixture was heated in a heating block at 60°C for 30 minutes. Samples were filtered through 0.22 μm filters and stored at 4°C before analysis.
An Agilent 6460 Triple Quad MS-MS was used to detect the derivatized butyrate. Both derivatized butyrate-NPH and 4-methylvaleric-NPH were detected in negative mode. Column: Thermo Fisher Scientific C18 4.6 × 50 mm, 1.8 μm particle size, at room temperature. Mobile phase A: water with 0.1% v/v formic acid. Mobile phase B: ACN with 0.1% v/v formic acid. Injection volume: 5.0 μL. Flow rate: 0.5 mL/min. Gradient of solvent: 15% mobile phase B at 0.0 minutes; 100% mobile phase B at 3.5 minutes; 100% mobile phase B at 6.0 minutes; 15% mobile phase B at 6.5 minutes. The MS conditions were optimized using pure butyrate-NPH or 4-methylvaleric-NPH at 1 mM. The fragment voltage was set to 135 V, and the collision energy was 18 V. Multiple reaction monitoring (MRM) of 222 → 137 was assigned to butyrate, and MRM of 250 → 137 was assigned to 4-methylvaleric acid as the internal standard. The ratio between MRM of butyrate and 4-methylvaleric acid was used to quantify butyrate concentration.
Three hours after administration, mice were anesthetized under isoflurane, and blood was collected via submandibular vein into EDTA-coated tubes. The tubes were centrifuged, and plasma was collected and frozen at –80°C. […] Organs, including liver, MLNs, ILNs, spleen, lung, heart, aorta, small intestine, and large intestine were collected and then transferred to –80°C until further processing. To extract butyrate from plasma or organs, a 1:1 (v/v) ACN/water solution was used. Plasma was mixed 1:1 with the ACN/water solution and centrifuged to remove denatured proteins. Organs were weighed, transferred to Lysing Matrix D tubes (MP Biomedicals), and combined with the 1:1 v/v ACN/water solution. Samples were then lysed using a FastPrep-24 5G homogenizer (MP Biomedicals) and centrifuged. The supernatants were collected for butyrate measurement by LC-MS/MS. The final butyrate content in each organ was normalized by organ weight.

[4] = tested on: RAW 264.7 macrophages; assay: LEGENDPlex cytokines in supernatant of LPS-stimulated RAW 264.7; format: cell-based; set-up: TNFa (Legendplex) / MCP-1 (Legendplex) / IL-10 (Legendplex) / IL-6 (Legendplex): unit not given here; details: for IL-10: compared with LPS-stimulated controls
Protocol: RAW 264.7 (ATCC, TIB-71) macrophages were cultured at 37°C and 5% CO2 in DMEM (Gibco) supplemented with 1 mM HEPES, 1 mM sodium pyruvate, 10% FBS, and penicillin/streptomycin. Cells were plated in round-bottom 96-well plates at 100,000 cells per well and incubated with different concentrations of either NaBut or SerBut (0.15–12 mM) for 24 hours. Cells were then rinsed with PBS and then stimulated with 200 ng/mL LPS in media for 6 hours. The cell culture supernatant was collected and analyzed by LEGENDPlex to analyze the concentrations of cytokines (BioLegend). Cell phenotype was analyzed using flow cytometry (Cytek Aurora).

[5] = tested on: RAW 264.7 macrophages; assay: Cell viability assay (MTS); format: cell-based; details: for Viability: 24 hours
Protocol: CellTiter 96 AQueous one Solution Cell Proliferation Assay (MTS) (Promega, G3582) was used according to the manufacturer’s instructions to analyze cytotoxicity of SerBut and NaBut at various concentrations (0.15–12 mM) in RAW 264.7 macrophages. Viability values were normalized to untreated cells (100%) and Triton X-100–treated cells (0%). Since absorbance is directly proportional to the number of living cells in culture, values greater than 100% indicate cell growth compared with controls.

In the case of `CCCC(=O)[O-].[Na+]` [NaBut, sodium butyrate, reference compound], the acaca [1] was 0.754 and 1.434 and 0.565 and 0.348, the acly [1] was 1.514 and 3.195 and 3.181 and 0.636 and the cpt1a [1] was 0.594 and 0.912 and 0.54 and 0.529. For the same compound, the fasn [1] was 1.21 and 3.882 and 0.92 and 0.454, the scd1 [1] was 1.215 and 2.79 and 1.889 and 0.696 and the srebf1 [1] was 0.816 and 1.204 and 0.406 and 0.79. The srebf2 [1] was 0.731 and 1.208 and 0.837 and 0.717, the “NFkB OD” value ([2]; 0.45 mM 24 h) was 0.161 and 0.132 and 0.164 and 0.174 and 0.222 and 0.147 and the “NFkB OD” value ([2]; 1.3 mM 24 h) was 0.118 and 0.109 and 0.114 and 0.106 and 0.112 and 0.117. The “NFkB OD” value ([2]; 4 mM 24 h) was 0.077 and 0.086 and 0.085 and 0.074 and 0.081, the “free butyrate, Plasma” value ([3]; 3 hours after single gavage of 272 mM butyrate) was 4.575 µM and the “IL-10 (Legendplex)” value ([4]; 0.15 mM 24 h, then LPS 6 h) was 8.317 and 9.29 and 13.129 and 8.37. The “MCP-1 (Legendplex)” value ([4]; 0.15 mM 24 h, then LPS 6 h) was 1660.24 and 2264.24 and 1687.05 and 2929.5 and 2357.33 and 2465.59, the “TNFa (Legendplex)” value ([4]; 0.15 mM 24 h, then LPS 6 h) was 3467.9 and 2909.16 and 2378.78 and 3607.94 and 2472.11 and 3683.23 and the “MCP-1 (Legendplex)” value ([4]; 0.45 mM 24 h, then LPS 6 h) was 2112.3 and 1670.81 and 2406.34 and 3206.1 and 2298.22 and 2148.28. For the same compound, the “TNFa (Legendplex)” value ([4]; 0.45 mM 24 h, then LPS 6 h) was 3244.2 and 3100.16 and 2160.11 and 2490.85 and 3404.75 and 4226.6, the “IL-6 (Legendplex)” value ([4]; 1.3 mM 24 h, then LPS 6 h) was 176.681 and 160.514 and 142.105 and 263.619 and 136.873 and 198.799 and the “IL-10 (Legendplex)” value ([4]; 1.3 mM 24 h, then LPS 6 h) was 98.389 and 140.989 and 108.157 and 179.138 and 132.561 and 143.069. For the same compound, the “MCP-1 (Legendplex)” value ([4]; 1.3 mM 24 h, then LPS 6 h) was 906.304 and 776.372 and 770.115 and 1009 and 667.135 and 799.178, the “TNFa (Legendplex)” value ([4]; 1.3 mM 24 h, then LPS 6 h) was 1902.56 and 1870.65 and 1906.93 and 1713.88 and 1376.2 and 1809.49 and the “IL-10” value [4] was “significantly increased”. The “cell viability” value ([5]; at 4 mM and above) was “significantly reduced cell viability”.
For `CCCC(=O)OC[C@H](N)C(=O)O` [SerBut, O-butyryl-L-serine], the “liver expression of Acly” value ([1]; 6 weeks, compared with NaBut-treated mice but not water-treated groups) was “significantly reduced expression”, the “liver expression of Cpt1a” value ([1]; 6 weeks, compared with water-treated groups, P = 0.06) was “strong trend toward reduction” and the acaca [1] was 0.188 and 0.284 and 0.192 and 0.406 and 0.341. The acly [1] was 0.526 and 0.622 and 0.832 and 0.324 and 0.471, the cpt1a [1] was 0.348 and 0.381 and 0.409 and 0.745 and 0.465 and the fasn [1] was 0.409 and 0.404 and 0.103 and 0.193 and 0.312. The scd1 [1] was 1.631 and 1.826 and 1.024 and 0.978 and 0.7, the srebf1 [1] was 0.853 and 0.562 and 0.47 and 0.606 and 0.321 and the srebf2 [1] was 0.511 and 0.812 and 0.428 and 0.961 and 0.372. The “NFkB OD” value ([2]; 1.3 mM 24 h) was 0.215 and 0.212 and 0.201 and 0.244 and 0.265 and 0.185, the “NFkB OD” value ([2]; 4 mM 24 h) was 0.151 and 0.171 and 0.176 and 0.19 and 0.152 and the “NFkB OD” value ([2]; 12 mM 24 h) was 0.101 and 0.118 and 0.1 and 0.099 and 0.117 and 0.087. For the same compound, the “LPS-induced NF-κB activation” value ([2]; 12 mM, comparable to 1.3 mM NaBut) was “significantly suppressed LPS-induced NF-κB activation”, the “free butyrate in liver, ILNs, kidney, spleen, lung and plasma” value ([3]; 3 hours after gavage) was “significant increases” and the “free butyrate in the MLNs” value ([3]; 3 hours after gavage) was “trending increases”. The “free butyrate in the heart and aorta” value ([3]; 3 hours after gavage, compared with both NaBut-treated and PBS-treated mice) was “significantly increased free butyrate”, the “TNFa (Legendplex)” value ([4]; 1.3 mM 24 h, then LPS 6 h) was 4133.05 and 4500 and 3675.16 and 3268.68 and 3195.27 and 3191.26 and the “TNFa (Legendplex)” value ([4]; 4 mM 24 h, then LPS 6 h) was 3513.15 and 3456.91 and 3852.76 and 3385.25 and 3103.2 and 3863.3. The “TNFa (Legendplex)” value ([4]; 12 mM 24 h, then 200 ng/mL LPS 6 h) was 1963.6 and 2002.31 and 2185.35 and 1388.16 and 2487.75 and 2408.88, the “production of IL-6, MCP-1 and GM-CSF” value ([4]; 12 mM, as effectively as 1.3 mM NaBut) was “suppressed NF-κB–regulated production of proinflammatory cytokines” and the “IL-10” value [4] was “trending increase”. The Viability ([5]; 0.15 mM, normalized to untreated (100%) and Triton X-100 (0%)) was 125.153% and 106.544% and 100.92%, the Viability ([5]; 0.44 mM) was 107.157% and 122.597% and 96.9325% and the Viability ([5]; 1.33 mM) was 115.337% and 91.7178% and 91.1043%. The Viability ([5]; 4 mM) was 117.28% and 100.204% and 101.431%, the Viability ([5]; 12 mM) was 121.575% and 99.0798% and 102.249% and the “cytotoxicity” value ([5]; even at 12 mM) was “no cytotoxicity”.
